Data taken from ChEMBL document CHEMBL1156865, “Chemical delivery system of metaiodobenzylguanidine (MIBG) to the central nervous system” (J Med Chem, 2010).

Assays:
[1] = Stability in Sprague-Dawley rat blood at 10 MBq assessed as radioactive compound recovery; assay type: ADME, tissue-based; details: whole blood, read-out: Stability
[2] = Stability in Sprague-Dawley rat brain assessed as unchanged parent compound level at 15 to 120 MBq, iv after 3 mins; assay type: ADME, organism-based; details: read-out: Stability
[3] = Stability in Sprague-Dawley rat brain assessed as unchanged parent compound level at 15 to 120 MBq, iv after 60 mins; assay type: ADME, organism-based; details: read-out: Stability
Brain [4] = assay: Stability in Sprague-Dawley rat brain assessed as polar radioactive metabolite level at 15 to 120 MBq, iv after 3 mins; assay type: ADME, organism-based; details: in vivo, 0.05 h
Brain [5] = assay: Stability in Sprague-Dawley rat brain assessed as polar radioactive metabolite level at 15 to 120 MBq, iv after 60 mins; assay type: ADME, organism-based; details: in vivo, 1 h
Brain [6] = assay: Drug uptake in Sprague-Dawley rat brain at 15 to 120 MBq, iv after 3 mins; assay type: ADME, organism-based; details: in vivo, 0.05 h
Brain [7] = assay: Drug uptake in Sprague-Dawley rat brain at 15 to 120 MBq, iv after 60 mins; assay type: ADME, organism-based; details: in vivo, 1 h

remaining at 10 MBq [1]: > 90%
remaining at 0.05 h [2]: 96%
remaining at 1 h [3]: 59%
Activity (Brain [4]): 4%
Activity (Brain [5]): 41%
Drug uptake (Brain [6]): 0.1 % ID/g
Drug uptake (Brain [7]): 0.06 % ID/g
SMILES: [11CH3]N1C=C(C(=O)NC(=N)NCc2cccc(I)c2)Cc2ccccc21
